Results: patent publication US20120035196A1, “CARBOXYLIC ACID COMPOUND” (priority 2009, published 2012)

Assays:
human GPR40 = target: T1, human GPR40 (Homo sapiens, UniProt O14842, R211H); experiment: Measurement of GPR40 agonistic activity (FLIPR, change in intracellular calcium concentration); type: cell-based; details: CHO cell strain expressing human GPR40; changes in fluorescence intensity after 1 minute
T1 construct: expressed in transfected cells
From the text: Test Method 1: Measurement of GPR40 Agonistic Activity i) Cloning of Human GPR40
A full-length sequence of GPR40 was obtained by PCR method using human genomic DNA (Clontech) as a template in accordance with the procedure shown below.
An oligonucleotide consisting of the base sequence represented by SEQ ID NO: 1 was used as the forward primer, and an oligonucleotide consisting of the base sequence represented by SEQ ID NO: 2 as the reverse primer. In this connection, a base sequence comprising a XbaI recognition region was added to the respective 5′-termini of the aforementioned forward primer and reverse primer. PCR was carried out in the presence of 5% dimethylsulfoxide (DMSO) using a Taq DNA polymerase (Ex Taq DNA polymerase; Takara Bio), by repeating 30 times of a cycle consisting of 94° C. (15 seconds)/55° C. (30 seconds)/72° C. (1 minute). As a result, a DNA fragment of about 0.9 kbp was amplified. This DNA fragment was digested with XbaI and then inserted into the XbaI site of a plasmid pEF-BOS-dhfr (Nucleic acids Research, 18, 5322, 1990), thereby obtaining a plasmid pEF-BOS-dhfr-GPR40.
The base sequence of the GPR40 gene in the pEF-BOS-dhfr-GPR40 was determined by the dideoxy terminator method using a DNA sequencer (ABI 377 DNA Sequencer, Applied Biosystems). The base sequence of the GPR40 gene was represented by the base sequence SEQ ID NO: 3. […]
ii) Preparation of GPR40 Stable Expression Cell
As the cell for expressing GPR40 protein, a CHO dhfr cell (a dihydrofolate reductase (dhfr) gene-deficient CHO cell) was used. Also, as the plasmid for expressing GPR40 protein, the plasmid pEF-BOS-dhfr-GPR40 obtained in the aforementioned i) was used. The CHO dhfr cell was inoculated into an αMEM medium containing 10% fetal calf serum (FCS) using a 6 well plate (Asahi Techno Glass) and cultured overnight to a confluence of 80 to 90%, and then 2 μg per well of the plasmid pEF-BOS-dhfr-GPR40 was gene-transferred using a transfection reagent (Lipofectamine 2000; Invitrogen). After 24 hours of culturing from the gene transfer, the cells were diluted and inoculated again. […] After 20 days of culturing, the formed colonies of cells were individually recovered and cultured to obtain CHO cells stably expressing GPR40. From these, cells having high reactivity for intrinsic ligands oleic acid and linoleic acid were selected. […]
iii) Measurement of GPR40 Agonistic Activity
The present test was measured by FLIPR (registered trademark, Molecular Devices) using a change in intracellular calcium concentration as the index. Hereinafter, the test method will be shown.
A CHO cell strain in which human GPR40 was expressed was inoculated into a 384 well black plate (Becton Dickinson) at 6×10^3 cells per well portion and cultured overnight in a CO2 incubator.
Using a Calcium-3 assay kit (Molecular Devices), one bottle of the phosphorescent pigment was dissolved in 10 ml of HBSS-HBEPES buffer (pH 7.4, 1×HBSS, 20 mM HEPES, Invitrogen). 35.68 mg of Probenecid (Sigma) was dissolved in 250 μl of 1 M NaOH and adjusted by adding 250 μl of the HBSS-HEPES buffer. A phosphorescent pigment solution was prepared by mixing 16 ml of HBSS-HEPES buffer, 640 μl of the phosphorescent pigment and 32 μl of probenecid per one plate. The medium was discarded from the plate, and the phosphorescent pigment solution was dispensed at 40 μl per well portion and then incubated at room temperature for 2 hours. Each compound to be tested was dissolved in DMSO and then diluted with HBSS-HEPES buffer and dispensed in 10 μl portions into the plate, thereby starting the reaction, and changes in the intracellular calcium concentration were measured by FLIPR. The EC50 value of each compound to be tested was calculated by a dose-response curve of changes in fluorescence intensity after 1 minute of the measurement.

Male ICR mice = experiment: Normal mice single oral glucose tolerance test; type: in vivo; details: Mus musculus, 0.5 h, orally 10 mg/kg 30 minutes before glucose loading (2 g/kg), 30 minutes after glucose loading, relative to control group, read-out: Blood glucose increase inhibition rate
Method: Test Method 3: Normal Mice Single Oral Glucose Tolerance Test
The present test was to examine the blood glucose increase inhibiting action of the test compound after glucose loading, using normal mice. Hereinafter, the test method will be shown.
Male ICR mice (6 weeks of age) after 1 week of acclimatization were subjected to overnight fasting and used as test animals. The test compound was made into a 0.01 M aqueous sodium hydroxide solution and orally administered at a dose of 10 mg/kg 30 minutes before the glucose loading (2 g/kg). A 0.01 M aqueous sodium hydroxide solution was administered to the control group. The blood glucose increase inhibitory ratio (%) after 30 minutes of glucose loading was calculated, relative to the control group.
When the compound of Example 72 described in Pamphlet of International Publication WO2005/087710 was orally administered at 10 mg/kg by the same method as the test method 3 above, the blood glucose increase inhibition rate was measured and found to be 9%, whereas when the compound was orally administered at 30 mg/kg, the blood glucose increase inhibition rate was 20%. […] Further, in the present test, a minimum administration amount showing a blood glucose increase inhibition rate of 20% or more or a minimum administration amount showing a significance (Dunnet multiple comparison test) relative to a control was taken as a minimum effective dose (MED).

T1 sequence (O14842 whole entry R211H): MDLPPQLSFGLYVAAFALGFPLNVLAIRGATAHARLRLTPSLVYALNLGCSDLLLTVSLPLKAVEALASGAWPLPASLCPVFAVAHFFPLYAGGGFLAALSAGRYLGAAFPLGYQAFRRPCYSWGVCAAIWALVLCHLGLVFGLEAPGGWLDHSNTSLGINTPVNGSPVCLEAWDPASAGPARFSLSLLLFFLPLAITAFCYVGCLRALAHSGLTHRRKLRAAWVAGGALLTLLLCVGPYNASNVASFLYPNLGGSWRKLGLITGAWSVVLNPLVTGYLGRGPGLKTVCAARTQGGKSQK

Row | EC50 (human GPR40) [nM] | SMILES | inhibition in vivo at 10 mg/kg (Male ICR mice) [%]
1 | 330 | Cc1cc(OCC[C@H](O)CO)cc(C)c1-c1cccc(COc2ccc3c(c2)OC2(CC2)C3CC(=O)O)c1C (single isomer, unassigned) [Example 25-7b] | –
2 | 210 | Cc1cc(OCCO)cc(C)c1-c1cccc(CNc2ccc3c(c2)CC2(CC2)C3CC(=O)O)c1C (single isomer, unassigned) [Example 25b, [5′-({[4′-(2-hydroxyethoxy)-2,2′,6′-trimethylbiphenyl-3-yl]methyl}amino)-1′,3′-dihydrospiro[cyclopropan-1,2′-inden]-1′-yl]acetic acid] | 33
3 | 270 | Cc1cc(OC[C@@H](O)CO)cc(C)c1-c1cccc(COc2ccc3c(c2)OC2(CC2)C3CC(=O)O)c1C (stereo partly drawn) [Example 22-1] | 35
4 | 430 | Cc1cc(OCC[C@@H](O)CO)cc(C)c1-c1cccc(COc2ccc3c(c2)OC2(CC2)C3CC(=O)O)c1C (stereo partly drawn) [Example 22-2] | 34
5 | 250 | Cc1cc(OC[C@H](O)CO)cc(C)c1-c1cccc(COc2ccc3c(c2)OC2(CC2)C3CC(=O)O)c1C (stereo partly drawn) [Example 22, sodium {6-[(4′-{[(2R)-2,3-dihydroxypropyl]oxy}-2,2′,6′-trimethylbiphenyl-3-yl)methoxy]-3H-spiro[1-benzofuran-2,1′-cyclopropan]-3-yl}acetate] | 34
6 | 610 | COCCOc1cc(C)c(-c2cccc(CNc3ccc4c(c3)CC3(CC3)C4CC(=O)O)c2C)c(C)c1 (stereo not drawn) [Example 8-3] | 21
7 | 190 | Cc1cc(OCCO)cc(C)c1-c1cccc(COc2ccc3c(c2)OC2(CC2)C3CC(=O)O)c1C (stereo not drawn) [Example 25-3b] | –
8 | 250 | Cc1cc(OC[C@H](O)CO)cc(C)c1-c1cccc(COc2ccc3c(c2)CC2(CC2)C3CC(=O)O)c1C (stereo partly drawn) [Example 4, sodium {5′-[(4′-{[(2R)-2,3-dihydroxypropyl]oxy}-2,2′,6′-trimethylbiphenyl-3-yl)methoxy]-1′,3′-dihydrospiro[cyclopropan-1,2′-inden]-1′-yl}acetate] | 20
9 | 520 | Cc1cc(OCCO)cc(C)c1-c1cccc(COc2ccc3c(c2)-c2ccccc2C3CC(=O)O)c1C (stereo not drawn) [Example 2, sodium (3-{[4′-(2-hydroxyethoxy)-2,2′,6′-trimethylbiphenyl-3-yl]methoxy}-9H-fluoren-9-yl)acetate] | 37
10 | 610 | Cc1cc(OC[C@H](O)CO)cc(C)c1-c1cccc(COc2ccc3c(c2)-c2ccccc2C3CC(=O)O)c1C (stereo partly drawn) [Example 8, sodium {3-[(4′-{[(2R)-2,3-dihydroxypropyl]oxy}-2,2′,6′-trimethylbiphenyl-3-yl)methoxy]-9H-fluoren-9-yl}acetate] | 25
11 | 520 | Cc1nc(OCCO)nc(C)c1-c1cccc(COc2ccc3c(c2)CC2(CC2)C3CC(=O)O)c1C (stereo not drawn) [Example 23, [5′-({3-[2-(2-hydroxyethoxy)-4,6-dimethylpyrimidin-5-yl]-2-methylbenzyl}oxy)-1′,3′-dihydrospiro[cyclopropan-1,2′-inden]-1′-yl]acetic acid] | 20
12 | 260 | Cc1cc(OC[C@@H](O)CO)cc(C)c1-c1cccc(COc2ccc3c(c2)OC2(CC2)C3CC(=O)O)c1C (single isomer, unassigned) [Example 25-5b] | –
13 | 560 | Cc1cc(OCCO)cc(C)c1-c1cccc(COc2ccc3c(c2)OC2(CC2)C3CC(=O)O)c1C (stereo not drawn) [Example 25-3a] | –
14 | 490 | Cc1cc(OCC[C@H](O)CO)cc(C)c1-c1cccc(COc2ccc3c(c2)OC2(CC2)C3CC(=O)O)c1C (single isomer, unassigned) [Example 25-7a] | –
15 | 470 | Cc1cc(OCC[C@H](O)CO)cc(C)c1-c1cccc(COc2ccc3c(c2)OC2(CC2)C3CC(=O)O)c1C (stereo partly drawn) [Example 22-3] | 38
16 | 810 | CCOCCOc1cc(C)c(-c2cccc(COc3ccc4c(c3)OC3(CC3)C4CC(=O)O)c2C)c(C)c1 (stereo not drawn) [Example 21-2] | 23
17 | 490 | Cc1cc(OCCO)cc(C)c1-c1cccc(COc2ccc3c(c2)OC2(CC2)C3CC(=O)O)c1C (stereo not drawn) [Example 20, sodium (6-{[4′-(2-hydroxyethoxy)-2,2′,6′-trimethylbiphenyl-3-yl]methoxy}-3H-spiro[1-benzofuran-2,1′-cyclopropan]-3-yl)acetate] | 40
18 | 590 | Cc1nc(OCCC(C)(C)O)nc(C)c1-c1cccc(COc2ccc3c(c2)CC2(CC2)C3CC(=O)O)c1C (stereo not drawn) [Example 8-12] | 24
19 | 350 | Cc1cc(OC[C@@H](O)CO)cc(C)c1-c1cccc(COc2ccc3c(c2)OC2(CC2)C3CC(=O)O)c1C (single isomer, unassigned) [Example 25-5a] | –
20 | 780 | Cc1cccc(C)c1-c1cccc(COc2ccc3c(c2)-c2ccccc2C3CC(=O)O)c1C (stereo not drawn) [Example 6, 0.5 calcium {3-[(2,2′,6′-trimethylbiphenyl-3-yl)methoxy]-9H-fluoren-9-yl}acetate] | 35
21 | 750 | COCCOc1cc(C)c(-c2cccc(COc3ccc4c(c3)OC3(CC3)C4CC(=O)O)c2C)c(C)c1 (stereo not drawn) [Example 21-1] | 30
22 | 790 | Cc1cc(OCCC(C)(C)O)cc(C)c1-c1cccc(CNc2ccc3c(c2)CC2(CC2)C3CC(=O)O)c1C (stereo not drawn) [Example 2-2] | 34
23 | 710 | COCCCOc1cc(C)c(-c2cccc(COc3ccc4c(c3)OC3(CC3)C4CC(=O)O)c2C)c(C)c1 (stereo not drawn) [Example 21-3] | 32

Row | SMILES | EC50 (human GPR40) [nM] | inhibition in vivo at 10 mg/kg (Male ICR mice) [%]
24 | Cc1cc(OCCC(C)(C)O)cc(C)c1-c1cccc(COc2ccc3c(c2)OC2(CC2)C3CC(=O)O)c1C (stereo not drawn) [Example 21, sodium (6-{[4′-(3-hydroxy-3-methylbutoxy)-2,2′,6′-trimethylbiphenyl-3-yl]methoxy}-3H-spiro[1-benzofuran-2,1′-cyclopropan]-3-yl)acetate] | 810 | 43
